One assay has as its system MDA-MB231 cell lines. Kind of assay: MTT cell viability assay (IC50). Format: cell-based. As to conditions: Homo sapiens, MDA-MB-231; MDA-MB231 cells; single dose of treatment; concentrations 10-9 to 104 M; 570 nm absorbance; FIG. 1; read-out: IC50 (half-maximal inhibitory concentration), MTT cell viability. On the procedure:
HCT 116 colon cancer and MDA-MB231 breast cancer cell lines are used in cell culture experiments.
Cells were treated with high-glucose DMEM medium (Biosera) supplemented with 10% FBS (Gibco) and 1× penicillin/streptomycin (Multicell). The assay was designed to contain 10,000 cells for each well of 24-well cell culture plates before being treated with inhibitors.
Compound of formula I was dissolved with DMSO as 20 mM stock. 24 hours later, the solution was diluted in DMEM with 10% FBS and final concentration of vehicle DMSO was 0.5% at maximum. Therefore, the vehicle group included 0.5% DMSO concentration in experiments. Intensive cultivation of cells causes a decrease in proliferation capacity.
The MTT cell viability assay was used to detect values of half-maximal inhibitory concentration (IC50). Different concentrations of compound of formula I ranging between 10-9 to 104 M were tested on MDA-MB231 cell lines with single dose of treatment. 570 nm absorbance values were recorded and IC50 values were calculated by dose response—inhibition curves and nonlinear regression analysis on Graphpad Prism 8 software.
In general terms: Formazan colour is commonly taken as a measure of viable cells.

The target in a further assay is MDM2 protein (Homo sapiens, UniProt Q00987). The settings on record: compared with a natural p53 peptide; cited from earlier work.
Sequence of MDM2 protein (Q00987 whole entry, species assumed): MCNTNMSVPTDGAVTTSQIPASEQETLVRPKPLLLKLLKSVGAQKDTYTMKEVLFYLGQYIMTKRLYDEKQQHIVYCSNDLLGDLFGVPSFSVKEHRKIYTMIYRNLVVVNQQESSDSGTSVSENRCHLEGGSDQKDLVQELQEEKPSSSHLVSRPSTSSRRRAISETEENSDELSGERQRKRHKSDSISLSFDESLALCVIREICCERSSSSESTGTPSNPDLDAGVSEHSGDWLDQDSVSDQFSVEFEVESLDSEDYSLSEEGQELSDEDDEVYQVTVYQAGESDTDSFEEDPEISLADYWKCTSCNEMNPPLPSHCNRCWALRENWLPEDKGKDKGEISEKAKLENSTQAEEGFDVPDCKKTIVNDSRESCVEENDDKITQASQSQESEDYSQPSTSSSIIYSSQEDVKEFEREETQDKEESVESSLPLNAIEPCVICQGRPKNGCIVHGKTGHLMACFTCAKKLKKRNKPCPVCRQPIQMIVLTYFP

pIC50: −log10 of the molar value.

Regarding `O=C(NCc1nc(-c2ccccc2)no1)NC(Cc1c[nH]c2ccccc12)C(=O)O` (centres unmarked) [compound of formula I], the pIC50 in the assay on MDA-MB231 cell lines was 6.05.
On to MI-319, for which the “binding affinity to MDM2 protein relative to natural p53 peptide” value on MDM2 protein is reported as 500 fold.
